Reference: patent publication US20230158100A1, “TREATMENT OF PANX1 ASSOCIATES DISEASES” (NURITAS LIMITED, priority 2020, published 2023)
Read-outs that look alike come from different tables or passages of the source. No end group written: not given here. Cy5 = Cy5 cyanine dye label

What was measured:
[1] = cited from earlier work
[2] = molecular target: T1, SLC35F2 (Homo sapiens, UniProt Q8IXU6); assay: Retrogenix cell microarray, confirmation on fixed and live cells; type: binding; conditions: for binding / specific interaction with SLC35F2: fixed HEK293 cells, 0.01 and 0.05 μg/ml
T1 construct: individually expressing 5528 full-length human plasma membrane proteins and secreted proteins; host or cells: HEK293 (fixed and live)
T1 sequence (Q8IXU6 1-374): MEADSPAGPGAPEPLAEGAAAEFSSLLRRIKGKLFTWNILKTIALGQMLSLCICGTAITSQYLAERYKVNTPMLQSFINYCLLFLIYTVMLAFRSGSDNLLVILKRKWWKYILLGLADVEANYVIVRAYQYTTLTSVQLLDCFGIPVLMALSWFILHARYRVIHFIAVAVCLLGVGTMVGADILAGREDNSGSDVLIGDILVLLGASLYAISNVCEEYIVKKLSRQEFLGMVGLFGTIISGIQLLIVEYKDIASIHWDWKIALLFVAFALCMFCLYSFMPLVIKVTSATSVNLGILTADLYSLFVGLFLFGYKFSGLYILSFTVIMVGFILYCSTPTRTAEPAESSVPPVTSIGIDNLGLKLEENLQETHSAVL
Experimental: (§1) CY5-labelled peptide (SEQUENCE ID NO. 1; (0.01 & 0.05 μg/ml) was screened for binding against fixed HEK293 Cells expressing 5528 human plasma membrane proteins. Screening was carried across two replicates and initial hits were selected and screened in more specific confirmation assay.
(§2) To confirm extracellular membrane binding of the peptide in culture, receptor screening was carried out (Retrogenix). Retrogenix's cell microarray technology was used to screen for specific cell surface target interactions of a CY5 labelled peptide (pep_HTWCFL the CY5 labelled version of SEQUENCE ID NO. 1).
(§3) Under this condition, the test peptide was screened for binding against fixed human HEK293 cells, individually expressing 5528 full-length human plasma membrane proteins and secreted proteins.
(§4) Each primary hit was then re-expressed, along with two control receptors (CD20 (MS4A1) and EGFR), and re-tested with 0.01 μg/ml and 0.05 μg/ml test peptide, equal concentrations of a control peptide, and other positive and negative control treatments. […] Among these were PANX1 (from two separate expression clones), SLC35F2 and TACR1.

[3] = molecular target: T2, TACR1 (Substance P receptor) (Homo sapiens, UniProt P25103); assay: as above; type: binding; conditions: for binding / specific interaction with TACR1: fixed HEK293 cells, 0.01 and 0.05 μg/ml
T2 construct: individually expressing 5528 full-length human plasma membrane proteins and secreted proteins; host or cells: HEK293 (fixed and live)
Experimental: as §1, §2, §3, §4

[4] = test system: α-SMA; assay: Anti-fibrotic activity in human primary hepatic stellate cells (α-SMA); type: cell-based
Experimental: FIG. 5A and B illustrate peptide of SEQUENCE ID NO. […] (A) Confocal imaging of human stellate cells treated with TGF-β1 to stimulate expression of α-SMA before treatment with peptide (5 nM). (B) Quantification of α-SMA expression.
Human stellate cells were treated with TGF-β1 to stimulate expression of α-SMA (smooth muscle action; primary marker for fibrosis) before treatment with the peptide (5 nM; SEQUENCE ID NO. 1). Confocal imaging of the cells was undertaken.

[5] = test system: PANX1; assay: Retrogenix cell microarray, confirmation on fixed and live cells; type: binding, human; conditions: for binding / specific interaction with PANX1: fixed HEK293 cells, 0.01 and 0.05 μg/ml, two separate expression clones
Experimental: as §1, §2, §3, §4

[6] = molecular target: T3, Panx1 (Homo sapiens, UniProt Q96RD7); assay: Intracellular peptide concentration after PANX1 activation (Caco2); type: cell-based; design: endogenous in cells; host or cells: Caco2; conditions: Caco2 cells, before and after channel activation by increased extracellular calcium
Experimental: The peptide of the invention (SEQUENCE ID NO. 1) was added to cells (Caco2). The PANX1 channel was activated in cells by increasing extracellular calcium levels. The intracellular concentration of the peptide was measured before and after activation.

[7] = test system: human skeletal muscle cells (HSKMC Cells); assay: Cell penetration imaging in human skeletal muscle cells; type: cell-based; conditions: 60 mins incubation, CY5 tagged peptide
Experimental: An array of imaging studies was conducted to determine the kinetics and nature of the peptide (SEQUENCE ID NO. 1) interaction with target cell types. These experiments were required to determine if the peptide target was an intra or extra cellular protein. […] Control staining with the unlabelled CY5 dye should no uptake in this cell type.

[8] = test system: IL-8; assay: IL-8 secretion in LPS-treated HepG2 cells; type: cell-based; conditions: peptide 5 ng/ml for 24 h, then 100 ng/mL LPS for 24 h
Experimental: FIG. 4 illustrates peptide of SEQUENCE ID NO. […] HepG2 cells were treated with peptide (5 ng/ml) for 24 h before treating with 100 ng/mL of LPS for 24 h. Data presented are the mean±SEM of at least 2 independent experiments. (*p<0.05 **p<0.01 ***p<0.001)
HepG2 cells were treated with peptide (5 ng/ml) for 24 h before treating with 100 ng/mL of LPS for 24 h. Data presented are the mean±SEM of at least two independent experiments. (*p<0.05 **p<0.01 ***p<0.001)

[9] = molecular target: T3, Panx1; assay: Ca2+ flux assay and flow cytometry in THP-1 cells; type: cell-based; design: endogenous in cells; host or cells: THP-1; conditions: 45 s preincubation with 1 μM peptide, ATP stimulation
Source text: FIG. 9A, B and C illustrate downregulation of ATP mediated Ca2+ ions flux by the peptide (SEQUENCE ID NO. 1). ATP treatment of THP-1 cells causes an increase in detection of FITC labelled Ca^2+ ions (A). […] Comparison of FITC fluorescent units detected via flow cytometry, independent of the peptide and in the presence of the peptide (C).
Panx-1 binding with the peptide (SEQUENCE ID NO. 1) was investigated using a Ca^2+ flux assay and flow cytometry. Panx-1 plays an important role in regulating the Ca^2+ ion and ATP balance at the cell membrane. This relationship can be leveraged to monitor the activity of Panx1. Blocking Panx1 should lead to a significant decrease in Ca^2+ flux in the cell, in response to ATP stimulation.
THP-1 cells were incubated with a FITC fluorescent dye for a period of 30 min in order to label intracellular Ca^2+ ions. Cells were then stimulated with ATP to drive calcium flux from the cell, this increase in fluorescence is then detected by flow cytometry. Prior to ATP stimulation, the cells are incubated with 1 μM doses of the peptide in order to investigate if a drop in calcium flux is observed, this drop caused by binding of the peptide to Panx1, thus inhibiting ATP mediated calcium flux.

[10] = test system: lipoproteins; conditions: binding to lipoproteins; cited from earlier work
[11] = Werle and Bernkop-Schnürch 2006; cited from earlier work
[12] = test system: 5528 full-length human plasma membrane proteins and secreted proteins; assay: Retrogenix cell microarray screen on fixed HEK293 cells; type: binding
Experimental: as §1, §2, §3, §4

[13] = molecular target: T4, TACR1 (Substance P receptor) (human, UniProt P25103 1-407); assay: cell microarray, CY5-labelled peptide on fixed HEK293 cells expressing human plasma membrane proteins
T4 construct: whole, on cells

[14] = molecular target: T5, SLC35F2 (human, UniProt Q8IXU6 1-374); assay: as above
T5 construct: whole, on cells
T5 sequence (looked up): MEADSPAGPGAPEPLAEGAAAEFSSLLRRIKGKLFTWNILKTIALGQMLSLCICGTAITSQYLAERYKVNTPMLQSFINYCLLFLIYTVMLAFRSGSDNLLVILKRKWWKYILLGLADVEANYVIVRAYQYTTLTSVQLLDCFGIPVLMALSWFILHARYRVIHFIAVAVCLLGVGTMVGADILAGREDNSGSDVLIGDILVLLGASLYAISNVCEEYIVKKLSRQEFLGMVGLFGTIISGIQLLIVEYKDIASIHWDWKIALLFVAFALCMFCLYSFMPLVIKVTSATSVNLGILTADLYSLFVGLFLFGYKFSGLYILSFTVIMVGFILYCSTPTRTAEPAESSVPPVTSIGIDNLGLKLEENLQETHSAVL

Chain of PANX1 (Q96RD7 1-400 limits assumed): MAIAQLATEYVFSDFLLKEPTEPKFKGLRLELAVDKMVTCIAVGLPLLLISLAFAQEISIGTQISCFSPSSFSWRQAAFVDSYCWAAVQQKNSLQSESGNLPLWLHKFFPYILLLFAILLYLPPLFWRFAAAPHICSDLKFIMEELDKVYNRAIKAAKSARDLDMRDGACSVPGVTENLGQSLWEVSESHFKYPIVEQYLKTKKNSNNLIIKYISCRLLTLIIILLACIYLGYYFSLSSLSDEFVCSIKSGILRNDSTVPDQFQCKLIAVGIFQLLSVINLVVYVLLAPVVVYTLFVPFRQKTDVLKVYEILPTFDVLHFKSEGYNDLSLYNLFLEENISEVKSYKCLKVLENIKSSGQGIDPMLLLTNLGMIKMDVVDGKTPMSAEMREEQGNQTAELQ
T2 sequence (P25103 whole entry): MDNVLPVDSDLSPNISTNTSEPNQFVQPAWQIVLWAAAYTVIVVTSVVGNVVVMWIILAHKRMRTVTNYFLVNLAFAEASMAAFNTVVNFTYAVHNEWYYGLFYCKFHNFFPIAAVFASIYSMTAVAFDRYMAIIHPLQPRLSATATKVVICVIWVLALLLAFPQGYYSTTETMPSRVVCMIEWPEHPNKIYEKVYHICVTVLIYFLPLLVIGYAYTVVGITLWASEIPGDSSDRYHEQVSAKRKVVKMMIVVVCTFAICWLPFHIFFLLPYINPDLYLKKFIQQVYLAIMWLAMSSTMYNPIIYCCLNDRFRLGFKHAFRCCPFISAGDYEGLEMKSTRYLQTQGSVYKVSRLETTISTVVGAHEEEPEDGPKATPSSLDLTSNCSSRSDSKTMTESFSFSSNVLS
T3 sequence (Q96RD7 whole entry): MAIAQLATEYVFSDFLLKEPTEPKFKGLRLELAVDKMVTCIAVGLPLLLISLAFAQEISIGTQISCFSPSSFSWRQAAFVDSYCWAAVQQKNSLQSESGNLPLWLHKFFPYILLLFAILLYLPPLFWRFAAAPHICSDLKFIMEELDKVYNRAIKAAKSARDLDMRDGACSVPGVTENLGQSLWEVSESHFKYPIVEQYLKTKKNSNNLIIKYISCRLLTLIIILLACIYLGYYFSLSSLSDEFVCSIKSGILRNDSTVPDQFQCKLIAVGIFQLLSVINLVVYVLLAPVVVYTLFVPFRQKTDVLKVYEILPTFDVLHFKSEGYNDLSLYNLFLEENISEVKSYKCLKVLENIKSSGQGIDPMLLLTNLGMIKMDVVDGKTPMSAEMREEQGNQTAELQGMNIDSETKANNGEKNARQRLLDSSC
T4 sequence (P25103 whole entry): as the sequence (P25103 whole entry) above

Molecule: NC(=O)CC[C@@H]1NC(=O)[C@H](Cc2ccccc2)NC(=O)[C@H](Cc2ccc(O)cc2)NC(=O)CCSSC[C@@H](C(=O)N2CCC[C@H]2C(=O)N[C@H](CCCN=C(N)N)C(=O)NCC(N)=O)NC(=O)[C@H](CC(N)=O)NC1=O [desmopressin]
- half-life ([1]; human, in vivo): 3.7 h

Molecule: WKDEAGKPLVK [SEQUENCE ID NO. 1]
- binding / specific interaction with SLC35F2 [2]: Highly Selective Targets
- binding / specific interaction with TACR1 [3]: Highly Selective Targets
- anti-fibrotic activity compared with Elafibranor ([4]; equivalent molar doses): outperformed Elafibranor
- α-SMA expression ([4]; human stellate cells treated with TGF-β1, peptide 5 nM, confocal imaging): decrease in α-SMA expression
- binding / specific interaction with PANX1 [5]: Highly Selective Targets
- intracellular concentration of the peptide [6]: increased when the channel is activated
- intracellular accumulation [7]: significant intracellular accumulation
- secretion of IL-8 [8]: reduces the secretion of IL-8
- ATP mediated Ca2+ ion flux [9]: blocks ATP mediated Ca^2+ ion flux

Molecule: CCNC(=O)[C@@H]1CCCN1C(=O)[C@H](CCCNC(=N)N)NC(=O)[C@H](CC(C)C)NC(=O)[C@@H](COC(C)(C)C)NC(=O)[C@H](Cc1ccc(O)cc1)NC(=O)[C@H](CO)NC(=O)[C@H](Cc1c[nH]c2ccccc12)NC(=O)[C@H](Cc1cnc[nH]1)NC(=O)[C@@H]1CCC(=O)N1 [buserelin]
- half-life ([1]; in humans, in words): much longer half-life

Molecule: NC(=O)CC[C@@H]1NC(=O)[C@H](Cc2ccccc2)NC(=O)[C@H](Cc2ccc(O)cc2)NC(=O)[C@@H](N)CSSC[C@@H](C(=O)N2CCC[C@H]2C(=O)N[C@@H](CCCN=C(N)N)C(=O)NCC(N)=O)NC(=O)[C@H](CC(N)=O)NC1=O [vasopressin]
- half-life ([1]; in humans): 0.167 to 0.583 h

Molecule: C[C@@H](O)[C@@H]1NC(=O)[C@H](CCCCN)NC(=O)[C@@H](Cc2c[nH]c3ccccc23)NC(=O)[C@H](Cc2ccccc2)NC(=O)[C@@H](NC(=O)[C@H](N)Cc2ccccc2)CSSC[C@@H](C(=O)N[C@H](CO)[C@@H](C)O)NC1=O [octreotide]
- fraction unbound [10]: 0.65
- half-life ([1]; in humans): about 100 min
- plasma half life time [11]: 1.5 h

Molecule: pep_HTWCFL: the CY5 labelled version of SEQUENCE ID NO. 1 (WKDEAGKPLVK; also: Cy5 label, position not given here)
- primary hits in initial screening ([12]; 0.01 μg/ml test peptide on fixed cells for 30 minutes): 43
- specific interactions for the test peptide after re-expression of primary hits ([12]; re-tested with 0.01 μg/ml and 0.05 μg/ml test peptide, fixed cells): Nine
- binding / specific interaction with SLC35F2 [2]: specific interactions
- specific interaction with SLC35F2 ([2]; live cell microarray): specific interactions
- binding / specific interaction with TACR1 [3]: specific interactions
- specific interaction with TACR1 ([3]; live cell microarray): specific interactions
- binding / specific interaction with PANX1 [5]: specific interactions
- signal to background ([5]; fixed cells): greatest signal to background
- binding signal on live cells ([5]; live cell microarray): lack of signals seen on live cells

B1: CY5-labelled peptide (pep_HTWCFL, the CY5 labelled version of SEQUENCE ID NO. 1) (peptide)
peptide: WKDEAGKPLVK-Cy5
notes: also called test peptide; C-terminal CY5 Tagged peptide
- binding result [13]: binds
- binding result [14]: binds
